Measured values published in PMC5893132, “Selective inhibition of histamine-evoked Ca^2+ signals by compartmentalized cAMP in human bronchial airway smooth muscle cells” (Cell Calcium, 2018).
Structures can show the parent of a compound that is named as a salt. No end group written: not given here. *: point of attachment. Myristoyl = CCCCCCCCCCCCCC(=O)*

Tests used:
Format in all cases: cell-based, human
hBASMCs = experiment: Increase in [Ca2+]i evoked directly by stimuli in fluo-4-loaded hBASMCs; conditions: for increase in [Ca2+]i evoked by the substance itself: hBASMCs from donors 1-3, PGE2 and sulprostone in Ca2+-free HBS; for effect of removal of extracellular Ca2+ on the peak increase in [Ca2+]i evoked by the stimulus: HBS vs Ca2+-free HBS (2.5 mM BAPTA added 37 s before the stimulus)
Experimental: (§1) Two methods were used to measure [Ca^2+]i in populations of hBASMCs. For measurements using a FlexStation III plate-reader (Molecular Devices, Sunnyvale, CA, USA), hBASMCs were seeded into 96-well plates (10^4 cells per well). After about 4 days, when the cells were confluent, the medium was replaced with SMGM-2 without serum or growth factor supplements, and the cells were used after a further 24 h. This period in serum-free medium increased by about 2-fold the amplitude of the increases in [Ca^2+]i evoked by histamine (results not shown). Cells were washed with HEPES-buffered saline (HBS: 135 mM NaCl, 5.9 mM KCl, 1.2 mM MgCl2, 1.5 mM CaCl2, 11.6 mM HEPES, 11.5 mM D-glucose, pH 7.3), and loaded with fluo-4 by incubation with fluo-4-AM (2 μM) in HBS (100 μL per well) containing pluronic F127 (0.02%, v/v) and probenecid (2.5 mM). After 1 h at 20 °C, the medium was replaced with HBS (100 μL per well) containing probenecid (2.5 mM). After a further incubation at 20 °C for 1 h, the medium was replaced with HBS (60–80 μL per well) or nominally Ca^2+-free HBS, and the cells were used immediately for experiments at 20 °C. In some experiments, BAPTA (2.5 mM) was added to HBS during the recording; this reduced the free [Ca^2+] of the HBS to ∼120 nM without affecting the pH. Drug additions (20 μL at 4 or 5 times the final concentration) were added automatically. Fluorescence from fluo-4 (excitation 485 nm, emission 525 nm) was recorded at 1.44-s intervals using Softmax Pro 5.4 (Molecular Devices). Fluorescence was calibrated to [Ca^2+]i from: [Ca^2+]i=KDCa×(F−Fmin/Fmax−F) where, KDCa is the equilibrium dissociation constant of fluo-4 for Ca^2+ (345 nM), F is the recorded fluorescence, and Fmin and Fmax are the fluorescence values recorded after addition of triton-X-100 (0.1%, v/v) with either BAPTA (10 mM, Fmin) or CaCl2 (10 mM, Fmax). Although treatment with triton-X-100 releases fluo-4 from cells into the medium, the fluo-4 fluorescence is captured with the same efficiency whether it is trapped within cells or dispersed within the small volume of the wells (unpublished observations). Fmax was determined for each well at the end of an experiment, and the average value was used for each column of 8 wells. Fmin was determined from parallel wells on each plate.
(§2) For measurements of [Ca^2+]i using an FDSS 7000 FLIPR (Hamamatsu), hBASMCs were seeded into 384-well plates (8000 cells per well) in 20 μL of SMGM-2 containing 5% serum. After 24 h, the medium was replaced with 15 μL of serum-free SMGM-2, and after a further 6 h the cells were loaded with Ca^2+ indicator by addition of FLIPR calcium 4 assay kit (Molecular Devices) supplemented with probenecid (2.5 mM). The exact composition of this ‘no-wash’ indicator kit is not disclosed by the manufacturer, but it contains fluo-4-AM and components that reduce background fluorescence. The manufacture’s stock solution was diluted 10-fold into HBSS containing BSA (0.1%, w/v) and HEPES (20 mM); 5 μL of this solution was then added to each well (containing 15 μL of serum-free SMGM-2). After 2 h at 37 °C in humidified air containing 5% CO2, the plate was used for experiments at 20 °C. Most additions (5 μL) were prepared in HBSS supplemented with HEPES (20 mM) and BSA (0.1%, w/v). For more prolonged incubations, drugs were diluted in the initial loading medium (to avoid changes in dye-loading during the ‘no wash’ protocol). Fluorescence signals (excitation at 480 nm, emission at 540 nm) were calibrated to [Ca^2+]i after measurement of Fmin and Fmax uniquely for each well, using a KDCa = 345 nM.
(§3) All concentration-effect relationships were determined by addition of different drug concentrations to individual wells in the same multi-well plate, rather than by sequential additions to the same well. […]

[1] = tested on: histamine-evoked Ca^2+ signals in hBASMCs; experiment: Histamine-evoked Ca2+ signals in populations of fluo-4-loaded hBASMCs; conditions: for effect on the inhibition of histamine-evoked Ca2+ signals by a maximally effective concentration of isoproterenol / effect on the sensitivity to isoproterenol of histamine-evoked Ca2+ signals: inhibitor pre-treatment 30 min, then isoproterenol 1 min; for effect on histamine-evoked Ca2+ signals: pre-treatment: 8-Br-cGMP, IBMX 20 min, forskolin 10 μM, NKH477 10 μM, butaprost 10 μM, TCS2510 1 μM 5 min
Experimental: as §1, §2, §3

[2] = tested on: intracellular cAMP in hBASMCs; experiment: Intracellular cAMP in hBASMCs by [3H]-adenine labeling; conditions: 5 min in HBS, TCS2510 1 μM; for effect on intracellular cAMP: PGE2 10 μM, butaprost 10 μM, [3H]-adenine labeling
Experimental: hBASMCs in 24-well plates (50,000 cells per well) were grown to confluence. The medium was then replaced with serum-free SMGM-2, and after 24 h this was supplemented with [^3H]-adenine (1 μCi per well, 18.4 Ci·mmol^−1). After 2 h at 37 °C in humidified air with 5% CO2, the medium was removed, and the cells were washed twice with HBS. The cells were stimulated at 20 °C in HBS. Incubations were terminated by removal of the medium, addition of ice-cold trichloroacetic acid (5%, 1 mL) and rapid freezing. This protocol ensured that only intracellular [^3H]-cAMP was detected. [^3H]-adenine nucleotides were separated by column chromatography, and the activity was determined by liquid scintillation counting using Ultra-gold scintillant. Results are presented as [^3H]-cAMP activity as a percentage of the sum of the activities of the fractions containing [^3H]-cAMP, [^3H]-ATP, [^3H]-ADP and [^3H]-AMP; henceforth, reported as [^3H]-cAMP (%).

18:1 lysophosphatidic acid [LPA]
increase in [Ca2+]i evoked by the substance itself (hBASMCs): Cells from all three donors responded

O=C(Nc1ncnc2c1ncn2[C@@H]1O[C@@H]2COP(=O)(O)OC2C1O)c1ccccc1 (stereo in doubt) [6-Bnz-cAMP]
amplitude of the Ca2+ signals evoked by histamine, % of paired controls ([1]; 500 μM, 20 min pre-treatment, histamine 10 μM, n = 5): 54 ± 4%

Nc1ncnc2c1nc(Br)n2[C@@H]1O[C@@H]2COP(=O)(O)O[C@H]2[C@H]1O [8-Br-cAMP]
pIC50 for inhibition of histamine-evoked Ca2+ signals ([1]; pre-treatment 20 min, histamine 10 μM, n = 6): 3.32 ± 0.16

CO[C@@H]1[C@@H]2OP(=O)(O)OC[C@H]2O[C@H]1n1c(Sc2ccc(Cl)cc2)nc2c(N)ncnc21 [8-pCPT-2′-O-Me-cAMP]
amplitude of the Ca2+ signals evoked by histamine, % of paired controls ([1]; 300 μM pre-treatment, histamine 10 μM): 103 ± 8%

Nc1ncnc2c1ncn2[C@@H]1O[C@H](COP(=O)(O)OP(=O)(O)OP(=O)(O)O)[C@@H](O)[C@H]1O [ATP]
increase in [Ca2+]i evoked by the substance itself (hBASMCs): cells from only one donor responded robustly to ATP (donor 3)

Cc1ccc(S(=O)(=O)c2c(C)cc(C)cc2C)cc1 [ESI-05, 4-methylphenyl-2,4,6-trimethylsulphone]
effect on the concentration-dependent inhibition of histamine-evoked Ca2+ signals by isoproterenol ([1]; ESI-05 25 μM, 30 min in HBS, histamine 10 μM added 1 min after isoproterenol, n = 9): had no effect

Cl.Cl.O=S(=O)(NCCNCC=Cc1ccc(Br)cc1)c1cccc2cnccc12 [H89, N-[2-[[3-(4-bromophenyl)-2-propenyl]amino]ethyl]-5-isoquinolinesulfonamide dihydrochloride]
effect on the inhibition of histamine-evoked Ca2+ signals by a maximally effective concentration of isoproterenol ([1]; histamine 10 μM, n = 9): had no significant effect
effect on the sensitivity to isoproterenol of histamine-evoked Ca2+ signals ([1]; histamine 10 μM, n = 9): significantly reduced the sensitivity to isoproterenol

CCCCCCOC(=O)[C@]1(O)C[C@@H]2O[C@@]1(C)n1c3ccccc3c3c4c(c5c6ccccc6n2c5c31)C(=O)NC4 [KT5720, (9R,10S,12S)-2,3,9,10,11,12-hexahydro-10-hydroxy-9-methyl-1-oxo-9,12-epoxy-1H-diindolo[1,2,3-fg:3′,2′,1′-kl]pyrrolo[3,4-i][1,6]benzodiazocine-10-carboxylic acid, hexyl ester]
effect on the inhibition of histamine-evoked Ca2+ signals by a maximally effective concentration of isoproterenol ([1]; histamine 10 μM, n = 9): had no significant effect
effect on the sensitivity to isoproterenol of histamine-evoked Ca2+ signals ([1]; histamine 10 μM, n = 9): Neither KT5720 nor PKI-myr significantly affected

C=C[C@@]1(C)CC(=O)[C@]2(O)[C@@]3(C)[C@@H](O)CCC(C)(C)[C@@H]3C(OC(=O)CCN(C)C)[C@H](OC(C)=O)[C@@]2(C)O1.Cl (stereo partly drawn) [NKH477, N,N-dimethyl-(3R,4aR,5S,6aS,10S,10aR,10bS)-5-(acetyloxy)-3-ethenyldodecahydro-10,10b-dihydroxy-3,4a,7,7,10a-pentamethyl-1-oxo-1H-naphtho[2,1-b]pyran-6-yl ester β-alanine hydrochloride]
effect on histamine-evoked Ca2+ signals [1]: mimicked the effect of isoproterenol

CCCCC[C@H](O)/C=C/[C@H]1[C@H](O)CC(=O)[C@@H]1C/C=C\CCCC(=O)O [PGE2, prostaglandin E2]
increase in [Ca2+]i evoked by the substance itself (hBASMCs): directly evoked a significant increase in [Ca^2+]i
effect on intracellular cAMP [2]: stimulated cAMP accumulation

Nc1ncnc2c1nc(Sc1ccc(Cl)cc1)n2[C@@H]1O[C@@H]2COP(O)(=S)O[C@H]2[C@H]1O (stereo partly shown) [Rp-8-CPT-cAMPS, Rp-8-CPT-cAMPs]
effect on the inhibition of histamine-evoked Ca2+ signals by a maximally effective concentration of isoproterenol ([1]; histamine 10 μM, n = 9): had no significant effect
effect on the sensitivity to isoproterenol of histamine-evoked Ca2+ signals ([1]; histamine 10 μM, n = 9): significant decrease in the sensitivity to isoproterenol, but the effect was small

O=C1CC[C@H](C=C[C@@H](O)Cc2ccccc2)N1CCCCCCc1nn[nH]n1 [TCS2510, (5R)-5-[(3S)-3-hydroxy-4-phenyl-1-buten-1-yl]-1-[6-(2H-tetrazol-5-yl)hexyl]-2-pyrrolidinone]
effect on histamine-evoked Ca2+ signals [1]: inhibited the Ca^2+ signals evoked by histamine
increase in [Ca2+]i evoked by the substance itself (hBASMCs): Neither butaprost nor TCS2510 evoked an increase in [Ca^2+]i
effect on intracellular cAMP [2]: stimulated formation of cAMP
production of cAMP at maximal concentration compared with forskolin, NKH477, isoproterenol or butaprost ([2]; equally effective in inhibiting histamine-evoked Ca2+ signals): far less

Cn1c(=O)c2c(ncn2C)n(C)c1=O [caffeine]
increase in [Ca2+]i evoked by the substance itself (hBASMCs): A lack of response

C[N+](C)(C)CCOC(N)=O [carbachol, carbamylcholine chloride]
effect of removal of extracellular Ca2+ on the peak increase in [Ca2+]i evoked by the stimulus (hBASMCs): unaffected
increase in [Ca2+]i evoked by the substance itself (hBASMCs): cells from only one other donor responded robustly to carbachol (donor 2)

NCCc1c[nH]cn1 [histamine, Histamine dihydrochloride]
effect of removal of extracellular Ca2+ on the peak increase in [Ca2+]i evoked by the stimulus (hBASMCs): unaffected
EC50 (hBASMCs; Homo sapiens, histamine alone, HBSS, n = 7, read-out: sensitivity to histamine (pEC50) (converted)): 1050 nM
increase in [Ca2+]i evoked by the substance itself (hBASMCs): Cells from all three donors responded
maximal amplitude of the peak increase in [Ca2+]i evoked by histamine (hBASMCs; histamine alone, HBSS, n = 7): 242 ± 15 nM

CS(=O)(=O)NC(=O)CCC/C=C\C[C@H]1C(=O)C[C@@H](O)[C@@H]1/C=C/[C@@H](O)COc1ccccc1 [sulprostone, Sulprostone]
increase in [Ca2+]i evoked by the substance itself (hBASMCs): also evoked an increase in [Ca^2+]i

bradykinin acetate (RPPGFSPFR; also: acetate salt; UniProt P01042 381-389, looked up)
effect of removal of extracellular Ca2+ on the peak increase in [Ca2+]i evoked by the stimulus (hBASMCs): unaffected
increase in [Ca2+]i evoked by the substance itself (hBASMCs): Cells from all three donors responded

myristoylated protein kinase inhibitor 14–22 amide (Myristoyl-SGRTGRRNA-NH2; SMILES CCCCCCCCCCCCCC(=O)N[C@@H](CO)C(=O)NCC(=O)N[C@@H](CCCNC(=N)N)C(=O)N[C@H](C(=O)NCC(=O)N[C@@H](CCCNC(=N)N)C(=O)N[C@@H](CCCNC(=N)N)C(=O)N[C@@H](CC(N)=O)C(=O)N[C@@H](C)C(N)=O)[C@@H](C)O; UniProt P61925 14-22, looked up, fragment) [PKI-myr]
effect on the inhibition of histamine-evoked Ca2+ signals by a maximally effective concentration of isoproterenol ([1]; histamine 10 μM, n = 9): had no significant effect
effect on the sensitivity to isoproterenol of histamine-evoked Ca2+ signals ([1]; histamine 10 μM, n = 9): Neither KT5720 nor PKI-myr significantly affected
